In US8258141B2, “Organic compounds” (Novartis AG, priority 2006, dated 2012) one finds Ki data, which are given here for five compounds.

One may read the Ki as the dissociation constant of the complex between target and ligand, obtained from inhibition or displacement.

Molecules are shown by their SMILES. Structures can show the parent of a compound that is named as a salt.

For this assay, the target named is adenosine A2A receptor (Homo sapiens, UniProt P29274). The assay can be described thus: Adenosine A2A receptor agonist assay, method of L. J. Murphree et al, Molecular Pharmacology 61, 455-462 (2002). Format: binding. The source says:
Compounds of formula (I) and formula (II) and their pharmaceutically acceptable salts are useful as pharmaceuticals. In particular, they activate the adenosine A2A receptor, i.e. they act as A2A receptor agonists.

adenosine A2A receptor, sequence (P29274 whole entry): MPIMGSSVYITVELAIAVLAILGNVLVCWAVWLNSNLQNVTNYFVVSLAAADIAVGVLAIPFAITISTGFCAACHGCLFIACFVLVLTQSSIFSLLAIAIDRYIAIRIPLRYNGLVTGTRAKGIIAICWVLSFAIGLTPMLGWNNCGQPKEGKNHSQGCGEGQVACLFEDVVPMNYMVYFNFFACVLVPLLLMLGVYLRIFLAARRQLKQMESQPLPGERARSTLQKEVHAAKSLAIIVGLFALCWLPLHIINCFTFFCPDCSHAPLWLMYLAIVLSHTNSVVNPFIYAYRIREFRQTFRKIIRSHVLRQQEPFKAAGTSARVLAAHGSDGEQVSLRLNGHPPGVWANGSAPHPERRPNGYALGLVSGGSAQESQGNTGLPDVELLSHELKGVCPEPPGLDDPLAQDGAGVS

Compound `N[C@@H]1CCN(c2nc(NCC(c3ccccc3)c3ccccc3)c3ncn([C@@H]4C[C@H](NC(=O)CO)[C@@H](O)[C@H]4O)c3n2)C1` [Example 1, N-{(1S,2R,3S,4R)-4-[2-((R)-3-Amino-pyrrolidin-1-yl)-6-(2,2-diphenyl-ethylamino)-purin-9-yl]-2,3-dihydroxy-cyclopentyl}-2-hydroxy-acetamide trifluoroacetate] had a Ki of 8.3 nM. On to `O=C(CO)N[C@H]1C[C@@H](n2cnc3c(NCC(c4ccccc4)c4ccccc4)nc(C(=O)NCCNC(=O)NC4CCN(c5ccccn5)CC4)nc32)[C@H](O)[C@@H]1O` [Example 14, 9-[(1R,2S,3R,4S)-2,3-Dihydroxy-4-(2-hydroxy-acetylamino)-cyclopentyl]-6-(2,2-diphenyl-ethylamino)-9H-purine-2-carboxylic acid {2-[3-(3,4,5,6-tetrahydro-2H-[1,2′]bipyridinyl-4-yl)-ureido]-ethyl}-amide trifluoroacetate], for which the Ki was 2.5 nM. Under `CCC(=O)N[C@H]1C[C@@H](n2cnc3c(NCC(c4ccccc4)c4ccccc4)nc(N4CC[C@@H](NC(=O)NCc5ccncc5)C4)nc32)[C@H](O)[C@@H]1O` [Example 20, N-((1S,2R,3S,4R)-4-{6-(2,2-diphenyl-ethylamino)-2-[(R)-3-(3-pyridin-4-ylmethyl-ureido)-pyrrolidin-1-yl]-purin-9-yl}-2,3-dihydroxy-cyclopentyl)-propionamide trifluoroacetate] stands 1.6 nM; under `CCC(=O)N[C@H]1C[C@@H](n2cnc3c(NCC(c4ccccc4)c4ccccc4)nc(N4CC[C@@H](NC(=O)N[C@@H]5CCN(C(=O)c6ccc(C(=O)OC)cc6)C5)C4)nc32)[C@H](O)[C@@H]1O` [Example 36, 4-[(R)-3-(3-{(R)-1-[9-((1R,2S,3R,4S)-2,3-Dihydroxy-4-propionylamino-cyclopentyl)-6-(2,2-diphenyl-ethylamino)-9H-purin-2-yl]-pyrrolidin-3-yl}-ureido)-pyrrolidine-1-carbonyl]-benzoic acid methyl ester], 3 nM. For `CCC(=O)N[C@H]1C[C@@H](n2cnc3c(NCC(c4ccccc4)c4ccccc4)nc(N4CC[C@@H](NC(=O)Nc5ccc(OCc6ccccc6)cc5)C4)nc32)[C@H](O)[C@@H]1O` [Example 178, N-{(1S,2R,3S,4R)-4-[2-{(R)-3-[3-(4-Benzyloxy-phenyl)-ureido]-pyrrolidin-1-yl}-6-(2,2-diphenyl-ethylamino)-purin-9-yl]-2,3-dihydroxy-cyclopentyl}-propionamide trifluoroacetate] the value was 8 nM.
